Here are results for 13 molecules from patent US20240116985A1, “STAPLED PEPTIDES AND METHODS THEREOF” (priority 2020, published 2024).

pIC50: −log10 of the molar value. A value given as a limit tells only on which side of the number the result lay.

In assay [1] the target is T1, full-length beta-Catenin (Uniprot ID P35222) (Homo sapiens, UniProt P35222).
T1 construct: 10 nM full-length beta-Catenin (Uniprot ID P35222)
T1 sequence (P35222 1-781): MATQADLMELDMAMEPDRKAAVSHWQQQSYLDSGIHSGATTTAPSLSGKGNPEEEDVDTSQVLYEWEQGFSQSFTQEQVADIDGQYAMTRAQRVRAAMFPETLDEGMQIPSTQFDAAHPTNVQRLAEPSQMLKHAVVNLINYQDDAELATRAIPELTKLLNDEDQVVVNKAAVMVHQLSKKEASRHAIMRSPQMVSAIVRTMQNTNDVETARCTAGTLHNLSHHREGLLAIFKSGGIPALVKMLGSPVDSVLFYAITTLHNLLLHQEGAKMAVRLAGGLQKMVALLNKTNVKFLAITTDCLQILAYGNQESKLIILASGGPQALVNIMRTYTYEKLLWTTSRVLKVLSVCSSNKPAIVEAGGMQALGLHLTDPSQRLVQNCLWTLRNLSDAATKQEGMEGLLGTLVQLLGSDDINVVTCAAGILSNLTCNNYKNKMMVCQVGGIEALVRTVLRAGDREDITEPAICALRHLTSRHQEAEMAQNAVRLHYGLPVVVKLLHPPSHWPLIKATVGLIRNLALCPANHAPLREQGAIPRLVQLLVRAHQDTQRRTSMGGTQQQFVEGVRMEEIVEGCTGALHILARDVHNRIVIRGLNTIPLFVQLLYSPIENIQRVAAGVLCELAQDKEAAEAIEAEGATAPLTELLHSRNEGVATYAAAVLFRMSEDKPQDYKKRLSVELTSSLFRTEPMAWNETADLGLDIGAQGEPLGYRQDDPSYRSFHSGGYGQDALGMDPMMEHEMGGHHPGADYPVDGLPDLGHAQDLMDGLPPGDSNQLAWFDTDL
Kind of assay: Fluorescence polarization IC50 (beta-catenin / 5FAM-TCF4 10-53 competition). The settings on record: fluorescence polarization; read-out: beta-Catenin FP IC50. In kind it is binding.

Assay [2] addresses T2, beta-catenin/TCF4 engagement (Homo sapiens, UniProt P35222).
T2 construct: expressed in transfected cells; host or cells: HEK293
T2 sequence (P35222 1-781): T1 sequence (P35222 1-781)
Kind of assay: Nano-BRET target engagement assay (B-cat-Halo & TCF4-Luc in HEK293 cells). The settings on record: absolute IC50; read-out: NanoBRET Abs IC50. The format is cell-based.

One may read the pIC50 as the IC50 on a negative log10 scale, so that one unit is a factor of ten.

For the molecule `CC(=O)N1CCC[C@]12CC=CCCCC1(CCCC=CCCCOC(=O)N3CC[C@@](C(=O)N[C@@H](Cc4ccsc4)C(=O)N[C@@H](Cc4csc5ccccc45)C(=O)N[C@@H](CCC(N)=O)C(N)=O)(C3)NC(=O)[C@H]([C@@H](C)O)NC(=O)[C@H](Cc3ccccc3)NC(=O)[C@H](C)NC(=O)C(C)(C)NC(=O)[C@H]([C@@H](C)O)NC(=O)[C@H](CC(N)=O)NC1=O)NC(=O)[C@H](CC(C)(C)C)NC(=O)[C@H](CC(=O)O)NC2=O` (stereo partly drawn) [I-2409, Ac-PL3-Asp-Npg-B5-Asn-Thr-Aib-Ala-Phe-Thr-PyrS2-3Thi-BztA-Gln-NH2], the figures for the pIC50 in assay [1] and in assay [2] were 6.40 and 4.30, respectively.
For `CC(=O)N1CCC[C@]12CC=CCCCC1(CCCC=CCCCOC(=O)N3CC[C@@](C(=O)N[C@@H](Cc4ccsc4)C(=O)N[C@@H](Cc4csc5ccccc45)C(=O)N[C@@H](CCC(N)=O)C(N)=O)(C3)NC(=O)[C@H](Cc3c[nH]cn3)NC(=O)[C@H](Cc3ccccc3)NC(=O)[C@H](C)NC(=O)C(C)(C)NC(=O)[C@H]([C@@H](C)O)NC(=O)[C@H](CC(N)=O)NC1=O)NC(=O)[C@H](CC(C)(C)C)NC(=O)[C@H](CC(=O)O)NC2=O` (stereo partly drawn) [I-2410, Ac-PL3-Asp-Npg-B5-Asn-Thr-Aib-Ala-Phe-His-PyrS2-3Thi-BztA-Gln-NH2], in that order: 6.52 and below 4.70.
In the same order, the values of `CC(=O)N1CCC[C@]12CC=CCCCC1(CCCC=CCCCOC(=O)N3CC[C@@](C(=O)N[C@@H](Cc4ccsc4)C(=O)N[C@@H](Cc4csc5ccccc45)C(=O)N[C@@H](Cc4c[nH]cn4)C(N)=O)(C3)NC(=O)[C@H](CC(N)=O)NC(=O)[C@H](Cc3ccccc3)NC(=O)[C@H](C)NC(=O)C(C)(C)NC(=O)[C@H]([C@@H](C)O)NC(=O)[C@H](CC(N)=O)NC1=O)NC(=O)[C@H](CC(C)(C)C)NC(=O)[C@H](CC(=O)O)NC2=O` (stereo partly drawn) [I-2414, Ac-PL3-Asp-Npg-B5-Asn-Thr-Aib-Ala-Phe-Asn-PyrS2-3Thi-BztA-His-NH2] are 8.15 and below 4.70.
For `CC(=O)N1CCC[C@]12CC=CCCCC1(CCCC=CCCCOC(=O)N3CC[C@@](C(=O)N[C@@H](Cc4ccsc4)C(=O)N[C@@H](Cc4csc5ccccc45)C(=O)N[C@@H](CC(N)=O)C(N)=O)(C3)NC(=O)[C@H](CC(N)=O)NC(=O)[C@H](Cc3ccccc3)NC(=O)[C@H](C)NC(=O)C(C)(C)NC(=O)[C@H]([C@@H](C)O)NC(=O)[C@H](CC(N)=O)NC1=O)NC(=O)[C@H](CC(C)(C)C)NC(=O)[C@H](CC(=O)O)NC2=O` (stereo partly drawn) [I-2415, Ac-PL3-Asp-Npg-B5-Asn-Thr-Aib-Ala-Phe-Asn-PyrS2-3Thi-BztA-Asn-NH2], in that order: 6.83 and below 4.70.
`CC(=O)N1CCC[C@]12CC=CCCCC1(CCCC=CCCCOC(=O)N3CC[C@@](C(=O)N[C@@H](Cc4ccsc4)C(=O)N[C@@H](Cc4ccc(Cl)c(Cl)c4)C(=O)N[C@@H](CCC(N)=O)C(N)=O)(C3)NC(=O)[C@H](CC(N)=O)NC(=O)[C@H](Cc3ccccc3)NC(=O)[C@H](C)NC(=O)C(C)(C)NC(=O)[C@H]([C@@H](C)O)NC(=O)[C@H](CC(N)=O)NC1=O)NC(=O)[C@H](CC(C)(C)C)NC(=O)[C@H](CC(=O)O)NC2=O` (stereo partly drawn) [I-2417, Ac-PL3-Asp-Npg-B5-Asn-Thr-Aib-Ala-Phe-Asn-PyrS2-3Thi-34C1F-Gln-NH2]: the pIC50 in assay [1] was 6.80; in assay [2], 4.67.
Regarding `CC(=O)N1CCC[C@]12CC=CCCCC1(CCCC=CCCCOC(=O)N3CC[C@@](C(=O)N[C@@H](Cc4ccccc4)C(=O)N[C@@H](Cc4csc5ccccc45)C(=O)N[C@@H](CCCCN)C(N)=O)(C3)NC(=O)[C@H](CC(C)C)NC(=O)[C@H](Cc3ccccc3)NC(=O)[C@H](C)NC(=O)[C@H](CCO)NC(=O)[C@H](CCC(N)=O)NC(=O)[C@H](CC(=O)O)NC1=O)NC(=O)[C@H](CC1CCCCC1)NC(=O)[C@H](CC(N)=O)NC2=O` (stereo partly drawn) [I-2419, Ac-PL3-Asn-Cha-B5-Asp-Gln-Hse-Ala-Phe-Leu-PyrS2-Phe-BztA-Lys-NH2], the pIC50 in assay [1] is 6.69; in assay [2], below 4.70.
For `CC(=O)N1CCC[C@]12CC=CCCCC1(CCCC=CCCCOC(=O)N3CC[C@@](C(=O)N[C@@H](Cc4ccccc4)C(=O)N[C@@H](Cc4csc5ccccc45)C(=O)N[C@@H](CCCCN)C(N)=O)(C3)NC(=O)[C@H](CC(C)C)NC(=O)[C@H](Cc3ccccc3)NC(=O)[C@H](C)NC(=O)[C@H](CCC(N)=O)NC(=O)[C@H](CCC(N)=O)NC(=O)[C@H](CC(=O)O)NC1=O)NC(=O)[C@H](CC1CCCCC1)NC(=O)[C@H](CC(N)=O)NC2=O` (stereo partly drawn) [I-2421, Ac-PL3-Asn-Cha-B5-Asp-Gln-Gln-Ala-Phe-Leu-PyrS2-Phe-BztA-Lys-NH2], in that order: 6.84 and below 4.70.
For `CC(=O)N1CCC[C@]12CC=CCCCC1(CCCC=CCCCOC(=O)N3CC[C@@](C(=O)N[C@@H](Cc4ccccc4)C(=O)N[C@@H](Cc4csc5ccccc45)C(=O)N[C@@H](CCCCN)C(N)=O)(C3)NC(=O)[C@H](CC(C)C)NC(=O)[C@H](Cc3ccccc3)NC(=O)[C@H](C)NC(=O)[C@H](CCCCNC(C)C)NC(=O)[C@H](CCC(N)=O)NC(=O)[C@H](CC(=O)O)NC1=O)NC(=O)[C@H](CC1CCCCC1)NC(=O)[C@H](CC(=O)O)NC2=O` (stereo partly drawn) [I-2429, Ac-PL3-Asp-Cha-B5-Asp-Gln-iPrLys-Ala-Phe-Leu-PyrS2-Phe-BztA-Lys-NH2], in that order: 8.00 and below 4.70.
`CC(=O)N1CCC[C@]12CC=CCCCC1(CCCC=CCCCOC(=O)N3CC[C@@](C(=O)N[C@@H](Cc4ccccc4C(F)(F)F)C(=O)N[C@@H](Cc4csc5ccccc45)C(=O)N[C@@H](CCC(N)=O)C(N)=O)(C3)NC(=O)[C@H](CC(C)C)NC(=O)[C@H](Cc3ccccc3)NC(=O)[C@H](C)NC(=O)[C@H](C)NC(=O)[C@H](Cc3cc(C(=O)O)cc(C(C)C)c3)NC(=O)[C@H](CC(=O)O)NC1=O)NC(=O)[C@H](CC(C)(C)C)NC(=O)[C@H](CC(=O)O)NC2=O` (stereo partly drawn) [I-2430, Ac-PL3-Asp-Npg-B5-Asp-5iPr3COOHF-Ala-Ala-Phe-Leu-PyrS2-2F3MeF-BztA-Gln-NH2]: the pIC50 is 7.49 in assay [1] and 5.35 in assay [2].
In the same order, the values of `CC(=O)N1CCC[C@]12CC=CCCCC1(CCCC=CCCCOC(=O)N3CC[C@@](C(=O)N[C@@H](Cc4ccccc4C(F)(F)F)C(=O)N[C@@H](Cc4csc5ccccc45)C(=O)N[C@@H](C)C(N)=O)(C3)NC(=O)[C@H](CC(C)C)NC(=O)[C@H](Cc3ccccc3)NC(=O)[C@H](C)NC(=O)[C@H](CCC(N)=O)NC(=O)[C@H](Cc3cc(C(=O)O)cc(C(C)C)c3)NC(=O)[C@H](CC(=O)O)NC1=O)NC(=O)[C@H](CC(C)(C)C)NC(=O)[C@H](CC(=O)O)NC2=O` (stereo partly drawn) [I-2431, Ac-PL3-Asp-Npg-B5-Asp-5iPr3COOHF-Gln-Ala-Phe-Leu-PyrS2-2F3MeF-BztA-Ala-NH2] are 7.48 and 5.15.
As to `CC(=O)N1CCC[C@]12CC=CCCCC1(CCCC=CCCCOC(=O)N3CC[C@@](C(=O)N[C@@H](Cc4ccsc4)C(=O)N[C@@H](Cc4csc5ccccc45)C(=O)N[C@@H](CCC(N)=O)C(N)=O)(C3)NC(=O)[C@H](CC(C)C)NC(=O)[C@H](Cc3ccccc3)NC(=O)[C@H](C)NC(=O)[C@H](CCCCNC(C)C)NC(=O)[C@H](CCC(N)=O)NC(=O)[C@H](CC(=O)O)NC1=O)NC(=O)[C@H](CC1CCCCC1)NC(=O)[C@H](CC(N)=O)NC2=O` (stereo partly drawn) [I-2446, Ac-PL3-Asn-Cha-B5-Asp-Gln-iPrLys-Ala-Phe-Leu-PyrS2-3Thi-BztA-Gln-NH2], the pIC50 in assay [1] was 7.03; in assay [2], below 4.70.
As to `CC(=O)N1CCC[C@]12CC=CCCCC1(CCCC=CCCCOC(=O)N3CC[C@@](C(=O)N[C@@H](Cc4ccccc4)C(=O)N[C@@H](Cc4csc5ccccc45)C(=O)N[C@@H](CCC(N)=O)C(N)=O)(C3)NC(=O)[C@H](CC(C)C)NC(=O)[C@H](Cc3ccccc3)NC(=O)[C@H](C)NC(=O)[C@H](CCCCNC(C)C)NC(=O)[C@H]([C@@H](C)O)NC(=O)[C@H](CC(=O)O)NC1=O)NC(=O)[C@H](CC1CCCCC1)NC(=O)[C@H](CC(N)=O)NC2=O` (stereo partly drawn) [I-2448, Ac-PL3-Asn-Cha-B5-Asp-Thr-iPrLys-Ala-Phe-Leu-PyrS2-Phe-BztA-Gln-NH2], the pIC50 is 7.08 in assay [1] and below 4.70 in assay [2].
For `CC(=O)N1CCC[C@]12CC=CCCCC1(CCCC=CCCCOC(=O)N3CC[C@@](C(=O)N[C@@H](Cc4ccccc4)C(=O)N[C@@H](Cc4csc5ccccc45)C(=O)N[C@@H](CCCCN)C(N)=O)(C3)NC(=O)[C@H](CC(C)C)NC(=O)[C@H](Cc3ccccc3)NC(=O)[C@H](C)NC(=O)[C@H](CCCCNC(C)C)NC(=O)[C@H]([C@@H](C)O)NC(=O)[C@H](CC(=O)O)NC1=O)NC(=O)[C@H](CC1CCCCC1)NC(=O)[C@H](CC(N)=O)NC2=O` (stereo partly drawn) [I-2450, Ac-PL3-Asn-Cha-B5-Asp-Thr-iPrLys-Ala-Phe-Leu-PyrS2-Phe-BztA-Lys-NH2], in that order: 7.20 and below 4.70.
